EP4653450A1 (priority 2023, dated 2024)
Several values for one entry are separate records, joined by “and”; a condition that tells them apart may be missing. Equal values may be shown once.

Key:
[1] = system: 47 safety-related targets
From the text: For 78 tests related to 47 safe targets, the experimental methods used included: cAMP assay, calcium flux assay, hormone nuclear receptor assay, kinase binding assay, enzyme activity assay, neurotransmitter transporter assay, ion channel assay, and transporter assay.

[2] = system: SARS-CoV-2 Delta strain (B.1.617.2); assay: microbe, parasite or virus in culture; settings: Severe acute respiratory syndrome coronavirus 2, Vero C1008
[3] = cynomolgus monkey, in vivo
[4] = system: SARS-CoV-2 Omicron strain (B.1.1.529); assay: microbe, parasite or virus in culture; settings: Severe acute respiratory syndrome coronavirus 2, Vero C1008
SARS-CoV-2 Delta strain = settings: mouse, in vivo

Method for human plasma protein: Human plasma was purchased from BioIVT, anticoagulated with EDTA K2, and stored at -80 °C. The 96-well equilibrium dialysis plate was purchased from HTDialysis LLC. The equilibrium dialysis membrane was purchased from Gales Ferry.
The alkaline solution was titrated with the acidic solution until the pH value was 7.4, and the buffer could be stored at 4 °C for 7 days.
The dialysis membrane was soaked in ultrapure water for 60 min to separate the membrane into two pieces, then soaked with 20% ethanol for 20 min, and finally soaked with dialysis buffer for 20 min.
The frozen plasma was quickly thawed at room temperature.
The plasma was then centrifuged at 4 °C for 10 min at a centrifugal force of 3,220 g to remove clots, and the supernatant was collected into a new centrifuge tube. The pH of the plasma was measured and recorded.
A 10 mM DMSO stock solution of the test substance was prepared. 2 µL of the stock solution (10 mM) was diluted with 98 µL of DMSO to give a working solution (200 µM). […]
50 µL of blank plasma was added to the phosphate-buffered saline sample. […] The mixture was well mixed, and the sample was analyzed using liquid chromatography-mass spectrometry.
All calculations were performed by Microsoft Excel. The peak areas of the test substance on the buffer side and the plasma side were determined. […]

CC(C)(C)C(NC(=O)C(F)(F)F)C(=O)N1CC2(CC1C(=O)NC(C#N)CC1CCNC1=O)SCCS2 (stereo not shown) [Compound of formula (I)]
EC50 [1]: > 100 µM
IC50 [2]: 0.04 µM
arrhythmia [3]: no test sample-related arrhythmia was observed
cardiovascular system changes [3]: no test sample-related cardiovascular system changes were observed
changes in ECG parameters or blood pressure [3]: no test sample-related changes in ECG parameters or blood pressure were observed
Free rate (F%) Replicate 1 (human plasma protein): 48.71%
Free rate (F%) Replicate 2 (human plasma protein): 44.55%
IC50 [4]: 0.12 µM
Brain tissue (log10 copies/mg) Day 2 (SARS-CoV-2 Delta strain): 1.04±0.24 log10 copies/mg and 0.77±0.20 log10 copies/mg
body weight (SARS-CoV-2 Delta strain): not significantly reduced
effect on viral titer in the lungs (SARS-CoV-2 Delta strain): sustained inhibitory effect
histopathological analysis of the lungs (SARS-CoV-2 Delta strain): significantly ameliorated lung damage
reduction of viral copy number in the lungs (SARS-CoV-2 Delta strain): 2.4 log10 copies/g
reduction of viral titer in the lungs (plaque assay) (SARS-CoV-2 Delta strain): more than 3 log10 PFU/g
viral titer in the lungs (plaque assay) (SARS-CoV-2 Delta strain): the titer was not detected
virus titer in the brains (SARS-CoV-2 Delta strain): no virus titer was detected
